These results are taken from US8350027B2, “Dual-acting pyrazole antihypertensive agents” (Theravance, Inc., priority 2009, dated 2013).

In one test the target is T1, human AT1 receptor (Homo sapiens, UniProt P30556).
T1 construct: expressed in transfected cells; host or cells: CHO-K1
T1 sequence (P30556 1-359): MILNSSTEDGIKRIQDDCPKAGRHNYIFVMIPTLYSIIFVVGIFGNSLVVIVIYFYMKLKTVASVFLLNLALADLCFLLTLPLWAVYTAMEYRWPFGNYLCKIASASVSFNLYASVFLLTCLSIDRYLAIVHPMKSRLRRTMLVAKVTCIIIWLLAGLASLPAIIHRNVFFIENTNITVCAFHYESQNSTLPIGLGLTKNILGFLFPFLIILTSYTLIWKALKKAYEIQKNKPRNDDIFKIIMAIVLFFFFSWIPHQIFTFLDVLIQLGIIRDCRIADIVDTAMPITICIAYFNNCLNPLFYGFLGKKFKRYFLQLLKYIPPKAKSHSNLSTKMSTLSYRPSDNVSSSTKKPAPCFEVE
The test is described as follows: AT1 radioligand binding assay (displacement of [Eu]AngII). Conditions: membranes of CHO-K1 cells expressing cloned human AT1 receptor; values given as lower bounds; read-out: AT1 pKi (converted). On the procedure: A. AT1 and AT2 Radioligand Binding Assays
These in vitro assays were used to assess the ability of test compounds to bind to the AT1 and the AT2 receptors.
Membrane Preparation from Cells Expressing Human AT1 or AT2 Receptors
Chinese hamster ovary (CHO-K1) derived cell lines stably expressing the cloned human AT1 or AT2 receptors, respectively, were grown in HAM's-F12 medium supplemented with 10% fetal bovine serum, 10 μg/ml penicillin/streptomycin, and 500 μg/ml geneticin in a 5% CO2 humidified incubator at 37° C. AT2 receptor expressing cells were grown in the additional presence of 100 nM PD123,319 (AT2 antagonist). When cultures reached 80-95% confluence, the cells were washed thoroughly in PBS and lifted with 5 mM EDTA. Cells were pelleted by centrifugation and snap frozen in MeOH-dry ice and stored at −80° C. until further use.
For membrane preparation, cell pellets were resuspended in lysis buffer (25 mM Tris/HCl pH 7.5 at 4° C., 1 mM EDTA, and one tablet of Complete Protease Inhibitor Cocktail Tablets with 2 mM EDTA per 50 mL buffer (Roche cat.#1697498, Roche Molecular Biochemicals, Indianapolis, Ind.)) and homogenized using a tight-fitting Dounce glass homogenizer (10 strokes) on ice. The homogenate was centrifuged at 1000×g, the supernatant was collected and centrifuged at 20,000×g. The final pellet was resuspended in membrane buffer (75 mM Tris/HCl pH 7.5, 12.5 mM MgCl2, 0.3 mM EDTA, 1 mM EGTA, 250 mM sucrose at 4° C.) and homogenized by extrusion through a 20G gauge needle. Protein concentration of the membrane suspension was determined by the method described in Bradford (1976) Anal Biochem. 72:248-54. Membranes were snap frozen in MeOH-dry ice and stored at −80° C. until further use.
Ligand Binding Assay to Determine Compound Affinities for the Human AT1 and AT2 Angiotensin Receptors
Binding assays were performed in 96-well Acrowell filter plates (Pall Inc., cat.#5020) in a total assay volume of 100 μL with 0.2 μg membrane protein for membranes containing the human AT1 receptor, or 2 μg membrane protein for membranes containing the human AT2 receptor in assay buffer (50 mM Tris/HCl pH 7.5 at 20° C., 5 mM MgCl2, 25 μM EDTA, 0.025% BSA). Saturation binding studies for determination of Kd values of the ligand were done using N-terminally Europium-labeled angiotensin-II ([Eu]AngII, H-(Eu-N^1)-Ahx-Asp-Arg-Val-Tyr-Ile-His-Pro-Phe-OH; PerkinElmer, Boston, Mass.) at 8 different concentrations ranging from 0.1 nM to 30 nM. […] Drugs were dissolved to a concentration of 1 mM in DMSO and from there serially diluted into assay buffer. Non-specific binding was determined in the presence of 10 μM unlabeled angiotensin-II. Assays were incubated for 120 minutes in the dark, at room temperature or 37° C., and binding reactions were terminated by rapid filtration through the Acrowell filter plates followed by three washes with 200 μL ice cold wash buffer (50 mM Tris/HCl pH 7.5 at 4° C., 5 mM MgCl2) using a Waters filtration manifold. Plates were tapped dry and incubated with 50 μl DELFIA Enhancement Solution (PerkinElmer cat.#4001-0010) at room temperature for 5 minutes on a shaker. Filter-bound [Eu]AngII was quantitated immediately on a Fusion plate reader (PerkinElmer) using Time Resolved Fluorescence (TRF). Binding data were analyzed by nonlinear regression analysis with the GraphPad Prism Software package (GraphPad Software, Inc., San Diego, Calif.) using the 3-parameter model for one-site competition. The BOTTOM (curve minimum) was fixed to the value for nonspecific binding, as determined in the presence of 10 μM angiotensin II. Ki values for drugs were calculated from observed IC50 values and the Kd value of [Eu]AngII according to the Cheng-Prusoff equation described in Cheng et al. (1973) Biochem Pharmacol. 22 (23):3099-108. Selectivities of test compounds for the AT1 receptor over the AT2 receptor were calculated as the ratio of AT2Ki/AT1Ki. […]

The next test has as its target T2, NEP enzyme (Homo sapiens, UniProt P08473).
T2 construct: purchased R&D Systems, Minneapolis, Minn; 1182-ZN
The test is described as follows: NEP enzyme inhibition assay (fluorogenic peptide substrate). The class given is biochemical. Conditions: values given as lower bounds; * = prodrugs, may not exhibit NEP activity in an in vitro assay; read-out: NEP pIC50 (converted). The protocol:
B. In Vitro Assays for the Quantitation of Inhibitor Potencies (IC50) at Human and Rat NEP, and Human ACE
The inhibitory activities of compounds at human and rat NEP and human ACE were determined using in vitro assays as described below.
Recombinant human NEP and recombinant human ACE were obtained commercially (R&D Systems, Minneapolis, Minn., catalog numbers 1182-ZN and 929-ZN, respectively). The fluorogenic peptide substrate Mca-BK2 (Mca-Arg-Pro-Pro-Gly-Phe-Ser-Ala-Phe-Lys(Dnp)-OH; Johnson et al. (2000) Anal. Biochem. 286: 112-118) was used for the human NEP and ACE assays, and Mca-RRL (Mca-DArg-Arg-Leu-(Dnp)-OH; Medeiros et al. (1997) Braz. J. Med. Biol. Res. 30:1157-1162) was used for the rat NEP assay (both from Anaspec, San Jose, Calif.).
The assays were performed in 384-well white opaque plates at room temperature using the respective fluorogenic peptides at a concentration of 10 μM in assay buffer (50 mM Tris/HCl at 25° C., 100 mM NaCl, 0.01% Tween-20, 1 μM Zn, 0.025% BSA). […] The rat NEP enzyme preparation was used at a concentration that yielded quantitative proteolysis of 3 μM of Mca-RRL within 20 minutes at room temperature.
Test compounds were diluted to 12 concentrations from 10 μM to 20 pM in Assay Buffer. Assays were started by adding 25 μL of enzyme to 12.5 μL of test compound at each of the 12 concentrations. Test compounds were allowed to equilibrate with the enzyme for 10 minutes before 12.5 μL of the fluorogenic substrates were added to initiate the reaction. Reactions were terminated by the addition of 10 μL of 3.6% glacial acetic acid after 20 minutes of incubation.
For sulfhydryl-containing test compounds, the test compounds may be diluted in Assay Buffer containing a 400 μM concentration of tris(2-carboxyethyl)phosphine hydrochloride (Thermo Scientific, Rockford, Ill.) (TCEP). The test compounds are then incubated for 40 minutes at room temperature (to allow for dimer cleavage) before adding the enzyme. Test compounds are then allowed to equilibrate with the enzyme for 20 minutes before adding the fluorogenic substrates. Reactions are terminated as above.
Plates were read on a fluorometer with excitation and emission wavelengths set to 320 nm and 405 nm, respectively. Raw data (relative fluorescence units) were normalized to % activity from the average high readings (no inhibition, 100% enzyme activity) and average low readings (full inhibition, highest inhibitor concentration, 0% enzyme activity) using three standard NEP and ACE inhibitors, respectively. Nonlinear regression of the normalized data was performed using a one site competition model (GraphPad Software, Inc., San Diego, Calif.). Data were reported as pIC50 values.

T2 sequence (P08473 52-750 limits assumed): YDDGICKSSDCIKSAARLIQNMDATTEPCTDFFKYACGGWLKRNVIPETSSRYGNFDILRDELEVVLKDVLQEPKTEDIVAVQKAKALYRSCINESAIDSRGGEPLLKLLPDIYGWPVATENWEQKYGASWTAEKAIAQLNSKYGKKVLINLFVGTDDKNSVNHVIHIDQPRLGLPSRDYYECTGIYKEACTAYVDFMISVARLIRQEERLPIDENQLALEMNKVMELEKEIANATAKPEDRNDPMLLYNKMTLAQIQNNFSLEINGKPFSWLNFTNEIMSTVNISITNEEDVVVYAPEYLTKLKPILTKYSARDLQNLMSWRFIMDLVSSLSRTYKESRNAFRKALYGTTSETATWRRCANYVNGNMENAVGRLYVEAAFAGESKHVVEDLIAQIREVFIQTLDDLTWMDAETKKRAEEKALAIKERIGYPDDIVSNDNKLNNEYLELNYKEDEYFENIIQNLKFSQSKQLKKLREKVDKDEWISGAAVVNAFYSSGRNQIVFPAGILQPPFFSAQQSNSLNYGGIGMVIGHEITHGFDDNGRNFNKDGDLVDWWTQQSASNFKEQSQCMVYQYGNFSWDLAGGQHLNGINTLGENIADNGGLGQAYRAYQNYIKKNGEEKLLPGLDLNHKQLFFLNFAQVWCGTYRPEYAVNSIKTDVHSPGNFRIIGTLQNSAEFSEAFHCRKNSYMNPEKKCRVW

As for `CCCc1cc(C(=O)N[C@@H](CC(=O)O)Cc2ccccc2)nn1Cc1ccc(-c2ccccc2-n2nn[nH]c2=O)cc1` [Example 16-4, (R)-3-({1-[2′-(5-Oxo-4,5-dihydrotetrazol-1-yl)biphenyl-4-ylmethyl]-5-propyl-1H-pyrazole-3-carbonyl}amino)-4-phenylbutyric acid], the Ki on human AT1 receptor was no more than 10 nM. The IC50 on NEP enzyme is no more than 1000 nM.
For `CCCc1cc(C(=O)N[C@H](Cc2ccccc2)[C@@H](O)C(=O)O)nn1Cc1ccc(-c2ccccc2S(=O)(=O)NC(=O)CO)cc1` [Example 7-15, (2R,3R)-2-Hydroxy-3-({1-[2′-(2-hydroxyacetylsulfamoyl)biphenyl-4-ylmethyl]-5-propyl-1H-pyrazole-3-carbonyl}amino)-4-phenylbutyric acid], in that order: no more than 10 nM and no more than 100 nM.
For `CCOc1cc(C(=O)N[C@@H](CC(=O)O)Cc2ccccc2)nn1Cc1ccc(-c2ccccc2-c2nnn[nH]2)cc1` [Example 3-32, (R)-3-({5-Ethoxy-1-[2′-(1H-tetrazol-5-yl)biphenyl-4-ylmethyl]-1H-pyrazole-3-carbonyl}amino)-4-phenylbutyric acid], in that order: no more than 100 nM and no more than 10000 nM.
The corresponding values for `CCCc1cc(C(=O)N[C@H](Cc2ccccc2)[C@@H](O)C(=O)O)nn1Cc1ccc(-c2ccccc2S(=O)(=O)NC(=O)N2CCCC2)cc1` [Example 7-21, (2R,3R)-2-Hydroxy-4-phenyl-3-[(5-propyl-1-{2′-[(pyrrolidine-1-carbonyl)sulfamoyl]biphenyl-4-ylmethyl}-1H-pyrazole-3-carbonyl)amino]butyric acid] are no more than 100 nM and no more than 100 nM.
Regarding `CCCc1cc(C(=O)N[C@H](Cc2ccccc2)[C@@H](O)C(=O)O)nn1Cc1ccc(-c2ccccc2S(=O)(=O)NC(C)=O)cn1` [Example 15-3, (2R,3R)-3-({1-[5-(2-Acetylsulfamoylphenyl)pyridin-2-ylmethyl]-5-propyl-1H-pyrazole-3-carbonyl}amino)-2-hydroxy-4-phenylbutyric acid], the Ki on human AT1 receptor is no more than 100 nM. Besides, the IC50 on NEP enzyme was no more than 100 nM.
With `CCCc1cc(C(=O)N[C@@H](CC(=O)OC)Cc2ccccc2C)nn1Cc1ccc(-c2ccccc2-c2nnn[nH]2)cc1` [Example 3-29, (R)-3-({5-Propyl-1-[2′-(1H-tetrazol-5-yl)-biphenyl-4-ylmethyl]-1H-pyrazole-3-carbonyl}amino)-4-o-tolyl-butyric acid methyl ester], the Ki at human AT1 receptor was no more than 10 nM. In addition, on NEP enzyme, the IC50 is no more than 10000 nM.
As to `CCCc1cc(C(=O)N[C@@H](CS)Cc2ccccc2)nn1Cc1ccc(-c2ccccc2-c2nnn[nH]2)c(F)c1` [Example 3-11, 1-((2-Fluoro-2′-(1H-tetrazol-5-yl)biphenyl-4-yl)methyl)-N-((R)-1-mercapto-3-phenylpropan-2-yl)-5-propyl-1H-pyrazole-3-carboxamide], the Ki at human AT1 receptor was no more than 10 nM. Also, the IC50 on NEP enzyme was no more than 100 nM.
The corresponding values for `CCCc1cc(C(=O)N[C@H](Cc2ccccc2)[C@@H](O)C(=O)O)nn1Cc1ccc(-c2ccccc2S(=O)(=O)NC(=O)c2ccccc2)cc1` [Example 7-12, (2R,3R)-3-{[1-(2′-Benzoylsulfamoylbiphenyl-4-ylmethyl)-5-propyl-1H-pyrazole-3-carbonyl]amino}-2-hydroxy-4-phenylbutyric acid] are no more than 10 nM and no more than 1000 nM.
For `CCCc1cc(C(=O)N[C@H](Cc2ccccc2)[C@@H](O)C(=O)O)nn1Cc1ccc(-c2ccccc2S(=O)(=O)NC(=O)C(C)(C)O)cc1` [Example 7-14, (2R,3R)-2-Hydroxy-3-({1-[2′-(2-hydroxy-2-methylpropionylsulfamoyl)biphenyl-4-ylmethyl]-5-propyl-1H-pyrazole-3-carbonyl}amino)-4-phenylbutyric acid], in that order: no more than 10 nM and no more than 100 nM.
For `CCOc1cc(C(=O)N[C@H](Cc2ccccc2)[C@@H](O)C(=O)O)nn1Cc1ccc(-c2ccccc2S(=O)(=O)NC(C)=O)cc1` [Example 6-3, (2R,3R)-3-{[1-(2′-Acetylsulfamoylbiphenyl-4-ylmethyl)-5-ethoxy-1H-pyrazole-3-carbonyl]amino}-2-hydroxy-4-phenyl-butyric acid], at human AT1 receptor, the Ki was no more than 100 nM. Besides, the IC50 on NEP enzyme was no more than 1000 nM.
Consider `CCOc1cc(C(=O)N[C@@H](CC(=O)O)Cc2ccccc2)nn1Cc1ccc(-c2ccccc2S(=O)(=O)NC(C)=O)cc1F` [Example 6-24, (R)-3-{[1-(2′-Acetylsulfamoyl-3-fluorobiphenyl-4-ylmethyl)-5-ethoxy-1H-pyrazole-3-carbonyl]amino}-4-phenylbutyric acid], for which, at human AT1 receptor, the Ki was no more than 10 nM. Moreover, on NEP enzyme, the IC50 is no more than 10000 nM.
